Each structure is given as a SMILES string. The source made the active and inactive calls.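 Rule for the calls: active = fitted half-maximal concentration for changing background-corrected GFP signal at or below a set limit; inactive = the rest.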

A short description of this assay: TOR pathway reporter MEP2-GFP, concentration series – S. cerevisiae, flow cytometry GFP, MLPCN hits, dose response (AID 2742).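 Note: GFP tag reports level of MEP2 protein as a downstream target of TOR signalling.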 As to conditions: S. cerevisiae MEP2-GFP strain, flow cytometry fluorescence, 3 h; at 33 µM (top of the series). For orientation: A flow cytometer gives signals particle by particle.
In the case of `Cc1cc(S(=O)(=O)ON2C(=O)c3ccccc3C2=O)ccc1F`, the GFP fluorescence (kMESF), higher = increase is 4.9 kMESF (inactive).

With `CCOC(=O)C1=C(O)c2ccccc2C(=O)/C1=C\c1ccc(C)cc1`, the GFP fluorescence (kMESF), higher = increase is -34.5 kMESF (inactive).

In the case of `Cc1c(C)c2ccc(Oc3ccc([N+](=O)[O-])cc3C(F)(F)F)c(C)c2oc1=O`, the GFP fluorescence (kMESF), higher = increase was 2 kMESF (inactive).

For the compound `COc1ccc(C(=O)/C=C2/C(=O)Nc3ccccc32)cc1OC`, the GFP fluorescence (kMESF), higher = increase is 2.25 kMESF (inactive).

As for `Cc1ccc(C2=NN(S(C)(=O)=O)C(c3ccc4c(c3)OCO4)C2)cc1` (centres undefined), the GFP fluorescence (kMESF), higher = increase was 2.44 kMESF (inactive).

Take `CC(C)(C)c1ccc(NC(=O)COC(=O)c2ccc([N+](=O)[O-])s2)cc1`: the GFP fluorescence (kMESF), higher = increase was 2.3 kMESF (inactive).

In the case of `O=C(Nc1ccccc1)ON=C1CCCC1`, the GFP fluorescence (kMESF), higher = increase was 2.76 kMESF (inactive).

For the compound `Cc1ccc(/C=N/Nc2ncc(Cl)cc2Cl)s1`, the GFP fluorescence (kMESF), higher = increase was 4.77 kMESF (inactive).

With `CC(C)(C)C(=O)NC(=S)NNC(=O)c1ccc(-c2ccccc2)cc1`, the GFP fluorescence (kMESF), higher = increase is 3.92 kMESF (inactive).

Consider `Cc1ccc(/C=C2/C(=O)ON=C2c2ccccc2)o1`, for which the GFP fluorescence (kMESF), higher = increase was 3.11 kMESF (inactive).

With `CC(C)[C@@]1(c2ccccc2)ON(c2ccccc2C(F)(F)F)C1=O`, the GFP fluorescence (kMESF), higher = increase was 2.37 kMESF (inactive).

For `N/C(Cc1ccc(Cl)cc1)=N\OC(=O)c1ccccc1`, the GFP fluorescence (kMESF), higher = increase was 3.99 kMESF (inactive).

As to `CCCCc1ccc(NC(=O)CC(C)=O)cc1`, the GFP fluorescence (kMESF), higher = increase was 2.02 kMESF (inactive).

Regarding `Cc1ccccc1N1C(=O)C(Cl)=C(N2CCN(c3ccccc3)CC2)C1=O`, the GFP fluorescence (kMESF), higher = increase is 2.9 kMESF (inactive).

For `O=C1c2ccccc2C(=O)N1OS(=O)(=O)c1ccccc1`, the GFP fluorescence (kMESF), higher = increase is 3.26 kMESF (inactive).

In the case of `Oc1ccc(COCc2ccccc2)c2cccnc12`, the GFP fluorescence (kMESF), higher = increase was 6.91 kMESF (inactive).

With `CCSc1nnc(NC(=O)c2ccccn2)s1`, the GFP fluorescence (kMESF), higher = increase was 4.39 kMESF (inactive).

For `CC1(C)OC(c2ccccc2)=C/C(=C/C=C2C(=O)NC(=S)NC2=O)O1`, the GFP fluorescence (kMESF), higher = increase is 2.7 kMESF (inactive).

As to `Cc1ccc(C2=NOC(=O)/C2=C\c2ccc(C)o2)cc1`, the GFP fluorescence (kMESF), higher = increase is 2.14 kMESF (inactive).

For the compound `COc1ccccc1NC1=C(Cl)C(=O)N(c2ccccc2)C1=O`, the GFP fluorescence (kMESF), higher = increase was 2.07 kMESF (inactive).

As to `O=C(O)c1ccc(COc2ccccc2C=C2C(=O)c3ccccc3C2=O)cc1`, the GFP fluorescence (kMESF), higher = increase was 1.54 kMESF (inactive).

Consider `CC(=O)N(C1=C(Cl)C(=O)c2ccccc2C1=O)C1CCCCC1`, for which the GFP fluorescence (kMESF), higher = increase was -3.41 kMESF (inactive).

`O=C(c1ccc(Cl)cc1)N1CCN(c2cccc3[nH]ccc23)CC1`: the GFP fluorescence (kMESF), higher = increase was 3.33 kMESF (inactive).

As to `COc1ccc(OC)c(S(=O)(=O)ON2C(=O)c3ccccc3C2=O)c1`, the GFP fluorescence (kMESF), higher = increase was -8.29 kMESF (inactive).

As for `O=C1c2ccccc2C(=O)C2OC12` (centres undefined), the GFP fluorescence (kMESF), higher = increase is 3.37 kMESF (inactive).

Regarding `CCOC(=O)C(C(=O)OCC)C(C(=O)OCC)N1CCOCC1` (centres undefined), the GFP fluorescence (kMESF), higher = increase is 4.83 kMESF (inactive).

For the compound `Cc1ccc(/C=C2\C(=O)NC(=S)N(c3ccccc3F)C2=O)s1`, the GFP fluorescence (kMESF), higher = increase was 4.49 kMESF (inactive).

As to `COc1ccc(C(=O)/C=C2/C(=O)Nc3ccccc32)cc1`, the GFP fluorescence (kMESF), higher = increase is 4.25 kMESF (inactive).

As for `O=C(Oc1cccc2cccnc12)c1ccc(Br)o1`, the GFP fluorescence (kMESF), higher = increase was 1.82 kMESF (inactive).

Consider `Cc1ccsc1/C=N/Nc1ncc(Cl)cc1Cl`, for which the GFP fluorescence (kMESF), higher = increase was 5.19 kMESF (inactive).

Turning to `O=C1c2ccccc2C(=O)N1OS(=O)(=O)c1ccc(F)cc1`, the GFP fluorescence (kMESF), higher = increase was 3.26 kMESF (inactive).

Take `Oc1c(CN2CCCCC2)cc(Br)c2cccnc12`: the GFP fluorescence (kMESF), higher = increase is 5.16 kMESF (inactive).

On to `Cc1cccc(C(=O)NC(=S)NNC(=O)Cc2ccccc2)c1`, for which the GFP fluorescence (kMESF), higher = increase was 3.56 kMESF (inactive).

Turning to `Oc1ccc2ccccc2c1N=Nc1nccs1`, the GFP fluorescence (kMESF), higher = increase is 4.97 kMESF (inactive).

`CC(C)CC(=O)NC(=S)Nc1nc(-c2ccccc2)cs1`: the GFP fluorescence (kMESF), higher = increase was 2.07 kMESF (inactive).

As to `O=C(OCn1ncc(Br)c(Br)c1=O)c1c(F)cccc1F`, the GFP fluorescence (kMESF), higher = increase is 4.49 kMESF (inactive).

For `Cc1ccc(S(=O)(=O)c2ncccc2[N+](=O)[O-])cc1`, the GFP fluorescence (kMESF), higher = increase was 3.64 kMESF (inactive).

In the case of `O=C(COc1ccc(F)cc1Cl)Nc1nc(-c2ccccn2)cs1`, the GFP fluorescence (kMESF), higher = increase is 4.88 kMESF (inactive).

Regarding `O=C1c2cccc3c([N+](=O)[O-])ccc(c23)C(=O)N1O`, the GFP fluorescence (kMESF), higher = increase was 22.1 kMESF (inactive).

Take `O=C(Nc1nc(-c2ccccn2)cs1)C1COc2ccccc2O1` (centres undefined): the GFP fluorescence (kMESF), higher = increase was 5.21 kMESF (inactive).

With `O=C(c1ccccn1)c1conc1C(=O)c1ccc(Br)cc1`, the GFP fluorescence (kMESF), higher = increase is 2.83 kMESF (inactive).

Turning to `CC1=C/C(=N\OS(=O)(=O)c2ccccc2)C(C)=CC1=O`, the GFP fluorescence (kMESF), higher = increase is -2.25 kMESF (inactive).

In the case of `O=C1C=C(c2ccc(Cl)cc2)C(=O)N1Nc1ccccc1`, the GFP fluorescence (kMESF), higher = increase is 5.31 kMESF (inactive).

For the compound `Cc1cccc(NC(c2ccc(C)s2)c2ccc3ccc(C)nc3c2O)n1` (centres undefined), the GFP fluorescence (kMESF), higher = increase was 8.62 kMESF (inactive).

Turning to `Oc1cc(-c2ccc(N3CCCCC3)nc2)cc2cccnc12`, the GFP fluorescence (kMESF), higher = increase was 3.04 kMESF (inactive).

As for `Cc1ccc(/C=C2\SC(=S)N(CC3CCCO3)C2=O)o1` (centres undefined), the GFP fluorescence (kMESF), higher = increase is 4.83 kMESF (inactive).

Regarding `O=C1NC(=O)N(c2ccccc2)C(=O)/C1=C/c1ccc(Sc2ccccc2)o1`, the GFP fluorescence (kMESF), higher = increase was 4.03 kMESF (inactive).

With `N#Cc1ccc(N=c2ssnc2Cl)cc1`, the GFP fluorescence (kMESF), higher = increase is 3.37 kMESF (inactive).

As for `COc1ccccc1OCCCc1c(C)n[nH]c1C`, the GFP fluorescence (kMESF), higher = increase was 3.47 kMESF (inactive).

Consider `Nc1ccccc1C#CC(=O)c1ccccc1`, for which the GFP fluorescence (kMESF), higher = increase is 6.68 kMESF (inactive).

As to `C=CCN1C(=O)/C(=C/c2ccc(-c3ccc(F)cc3)o2)SC1=S`, the GFP fluorescence (kMESF), higher = increase was 8.29 kMESF (inactive).

With `Cc1ccc(N=Nc2ccc(O)c3ncccc23)cc1`, the GFP fluorescence (kMESF), higher = increase is 3.18 kMESF (inactive).

`CC(Oc1cc2oc(=O)c3c(c2cc1Cl)CCC3)C(=O)NCCN1CCOCC1` (centres undefined): the GFP fluorescence (kMESF), higher = increase was 2.37 kMESF (inactive).

For the compound `Cc1cc(O)c(C(=O)/C=C/c2c(F)c(F)c(F)c(F)c2F)c(=O)o1`, the GFP fluorescence (kMESF), higher = increase was 0.99 kMESF (inactive).

Turning to `Cc1ccc2nc(Cl)c3nnnn3c2c1`, the GFP fluorescence (kMESF), higher = increase was 4.36 kMESF (inactive).

With `CCc1cccc2sc(N3CCN(C(=O)c4ccc([N+](=O)[O-])o4)CC3)nc12`, the GFP fluorescence (kMESF), higher = increase is 0.16 kMESF (inactive).

For `Cc1[nH][nH]c(=O)c1C(c1ccc(-c2ccc(Cl)c(Cl)c2)o1)c1c(C)[nH][nH]c1=O`, the GFP fluorescence (kMESF), higher = increase was 4.42 kMESF (inactive).

For `O=C(NC(=S)NNC(=O)c1cnccn1)c1ccc(F)cc1`, the GFP fluorescence (kMESF), higher = increase was 4.26 kMESF (inactive).

On to `CCc1ccc(OCC(=O)NNC(=S)NC(=O)C2CC2)c(Br)c1`, for which the GFP fluorescence (kMESF), higher = increase is 5.6 kMESF (inactive).

With `Cc1ccc(/C=c2\sc3nc(-c4cccs4)nn3c2=O)o1`, the GFP fluorescence (kMESF), higher = increase is 8.12 kMESF (inactive).

Take `COc1cc(N2C(=O)C=CC2=O)c(OC)cc1Cl`: the GFP fluorescence (kMESF), higher = increase was 3.78 kMESF (inactive).

With `CCc1nc2ccccc2c(=O)n1NC(=O)c1c(O)c2cccc3c2n(c1=O)CCC3`, the GFP fluorescence (kMESF), higher = increase was 1.72 kMESF (inactive).

On to `O=C1C=CC(=O)N1c1ccc(O)cc1`, for which the GFP fluorescence (kMESF), higher = increase is 6.77 kMESF (inactive).

As to `Cc1ccc(/C(N)=N/OC(=O)c2ccc(F)cc2)cc1`, the GFP fluorescence (kMESF), higher = increase is 2.2 kMESF (inactive).

For the compound `Cc1[nH]n(-c2ccccc2)c(=O)c1C(c1ccccc1[N+](=O)[O-])C(C#N)C#N` (centres undefined), the GFP fluorescence (kMESF), higher = increase was 4.8 kMESF (inactive).

Turning to `CCn1c(=O)c(C(=O)Nc2nc3ccccc3[nH]2)c(O)c2ccccc21`, the GFP fluorescence (kMESF), higher = increase is 2.38 kMESF (inactive).

For `CCCCC(=O)NNC(=S)NC(=O)c1ccc(C)cc1`, the GFP fluorescence (kMESF), higher = increase was 4.34 kMESF (inactive).

With `O=C1C=CC(=O)N1c1ccc(Sc2ccc([N+](=O)[O-])cc2)cc1`, the GFP fluorescence (kMESF), higher = increase is 2.59 kMESF (inactive).

Regarding `O=C(Oc1c(Cl)cc(Cl)c2cccnc12)c1ccco1`, the GFP fluorescence (kMESF), higher = increase was 9.81 kMESF (inactive).

On to `Cc1c(Cc2ccccc2)c(NCCN(C)C)n2c(nc3ccccc32)c1C#N`, for which the GFP fluorescence (kMESF), higher = increase is 4.39 kMESF (inactive).

Take `COc1ccc(C(=O)NNC(=S)NC(=O)/C=C/c2cccs2)cc1`: the GFP fluorescence (kMESF), higher = increase was 5.04 kMESF (inactive).

Regarding `COc1ccc(CCNC2=C(Cl)C(=O)N(CCc3ccccc3)C2=O)cc1OC`, the GFP fluorescence (kMESF), higher = increase was 2.6 kMESF (inactive).

In the case of `N#Cc1nccnc1S(=O)(=O)c1cccs1`, the GFP fluorescence (kMESF), higher = increase was 2.29 kMESF (inactive).

Take `O=C1C=CC(=O)N1c1cccc(-c2ccccc2)c1`: the GFP fluorescence (kMESF), higher = increase was 5.31 kMESF (inactive).

Regarding `Cc1cc(C(=O)COC(=O)c2ccc[nH]c2=O)c(C)n1-c1ccccc1F`, the GFP fluorescence (kMESF), higher = increase is 1.88 kMESF (inactive).

Turning to `O=C(OCn1ncc(Br)c(Br)c1=O)c1ccccc1Cl`, the GFP fluorescence (kMESF), higher = increase was 4.8 kMESF (inactive).

Regarding `O=C(Nc1nnc(-c2ccc(F)cc2)o1)c1cc(Cl)sc1Cl`, the GFP fluorescence (kMESF), higher = increase is 3.38 kMESF (inactive).

Take `CC(C)C(=O)NC(c1cccs1)c1cc([N+](=O)[O-])c2cccnc2c1O` (centres undefined): the GFP fluorescence (kMESF), higher = increase was 3.41 kMESF (inactive).

Turning to `Cc1ccc(/C=C2\C(=O)NC(=S)N(c3ccc(F)cc3)C2=O)s1`, the GFP fluorescence (kMESF), higher = increase is 4.08 kMESF (inactive).

Source of the values: PubChem BioAssay AID2742 (NMMLSC, 2010).
